Consider twelve compounds from patent US10669284B2, “Fused thiazolopyrimidine derivatives as MNKS inhibitors” (LIFEARC, priority 2015, dated 2020).

Assay [1] deals with eIF4E phosphorylation in normal mouse tissues and xenografted tumors. The following applies: after oral administration; cited from earlier work.
The subject of assay [2] is HCT116 xenograft. As to conditions: HCT116 xenograft models; cited from earlier work.
The subject of assay [3] is B16 melanoma lung metastases. The following applies: cited from earlier work.
Assay [4] concerns monocytic cell line THP-1. As to conditions: cited from earlier work.
In assay [5] the test system is keratinocytes. The following applies: cited from earlier work.
Assay [6] addresses T1, Full-length human MNK2 (Homo sapiens, UniProt Q9HBH9, T379D).
T1 construct: GST (N); purchased Carna Biosciences 02-146; host or cells: baculovirus expression system
The assay is described as follows: MNK2 biochemical IC50 assay (Caliper Mobility Shift Assay). The following applies: read-out: P(IC50) MNK2 (converted).

In assay [7] the target is T2, Full-length human MNK1 (Homo sapiens, UniProt Q9BUB5, T385D).
T2 construct: GST (N); purchased Carna Biosciences 02-145; host or cells: baculovirus expression system
The assay is described as follows: MNK1 biochemical IC50 assay (Caliper Mobility Shift Assay). The following applies: read-out: P(IC50) MNK1 (converted).

Assay [8] relates to phosphorylation of eIF4E at ser209 in MV4.11 cell line. The assay is described as follows: MNK cellular activity phospho-eIF4E detection assay (Alphascreen Surefire). As to conditions: Homo sapiens; MV4.11 cell line, phospho-eIF4E (ser209) Alphascreen Surefire; read-out: P(IC50) elF4E (converted). The class given is cell-based. In a few lines: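 AlphaScreen SureFire sandwich-immunoassay readout of phospho-eIF4E Ser209 in lysed MV4.11 cells; acceptor then donor beads, each 1.5 hr at room temperature. Signal normalised to untreated DMSO-only controls; duplicate curves, values averaged over at least 2 independent experiments.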

T1 sequence (Q9HBH9 whole entry T379D): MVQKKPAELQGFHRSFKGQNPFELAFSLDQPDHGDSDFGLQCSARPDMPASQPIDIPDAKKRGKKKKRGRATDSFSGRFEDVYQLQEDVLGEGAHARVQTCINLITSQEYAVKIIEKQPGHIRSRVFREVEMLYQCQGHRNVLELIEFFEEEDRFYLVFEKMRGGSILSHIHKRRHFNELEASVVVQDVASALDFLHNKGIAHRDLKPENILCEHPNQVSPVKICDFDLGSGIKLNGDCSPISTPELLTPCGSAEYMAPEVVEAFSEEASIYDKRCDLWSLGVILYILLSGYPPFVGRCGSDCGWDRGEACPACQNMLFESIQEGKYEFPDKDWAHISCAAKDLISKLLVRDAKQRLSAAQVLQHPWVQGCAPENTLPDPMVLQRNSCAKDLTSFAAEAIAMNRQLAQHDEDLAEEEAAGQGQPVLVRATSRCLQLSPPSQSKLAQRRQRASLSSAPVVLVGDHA
T2 sequence (Q9BUB5 1-424 isoform Q9BUB5-2 T344D): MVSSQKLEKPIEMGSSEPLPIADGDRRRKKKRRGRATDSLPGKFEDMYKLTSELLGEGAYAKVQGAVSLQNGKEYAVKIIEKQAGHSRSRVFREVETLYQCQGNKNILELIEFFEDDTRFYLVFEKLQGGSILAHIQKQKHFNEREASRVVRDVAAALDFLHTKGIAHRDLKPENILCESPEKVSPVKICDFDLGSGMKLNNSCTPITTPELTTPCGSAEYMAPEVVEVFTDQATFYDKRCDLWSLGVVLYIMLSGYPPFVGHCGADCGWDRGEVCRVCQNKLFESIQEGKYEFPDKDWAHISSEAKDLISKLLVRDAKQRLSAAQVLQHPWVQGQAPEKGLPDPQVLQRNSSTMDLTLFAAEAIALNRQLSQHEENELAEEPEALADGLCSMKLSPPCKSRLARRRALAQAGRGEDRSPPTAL

Consider `CC(=O)C1=C(O)C=C2Oc3c(C(N)=O)c(O)cc(O)c3[C@]2(C)C1=O` [cercosporamide], for which the “time to effective block of eIF4E phosphorylation” value in assay [1] was not above 30 min. Besides, in assay [2], the tumor growth entry is given as “reducing tumor growth”. Also, the “outgrowth of lung metastases” value in assay [3] is “suppressing the outgrowth”.
Regarding `Nc1ncnc2n[nH]c(Nc3ccc(F)cc3)c12` [CGP57380], the “block of release of IL-1β and IL-8 induced by Shiga toxin” value in assay [4] is reported as 73-96%. In addition, in assay [5], the TNF-production entry is listed as “reduced TNF-production”; the “expression of IL-1β and IL-6” value was “decreased expression”.
Take `CN(C)CCCNC(=O)c1nc2c(Nc3cccc4c3OCC4)ncnc2s1` [Example 26, 7-(2,3-Dihydrobenzofuran-7-ylamino)-N-[3-(dimethylamino)propyl]thiazolo[5,4-d]pyrimidine-2-carboxamide]: the figures for the IC50 in assay [6], in assay [7] and in assay [8] were 1580 nM, 1580 nM and 1000 nM, respectively.
`CN(C)CCCNC(=O)c1nc2c(Nc3ccc(F)cc3O[C@@H]3CCCC[C@H]3O)ncnc2s1` [Example 15, N-[3-(dimethylamino)propyl]-7-[4-fluoro-2-[(1R,2R)-2-hydroxycyclohexoxy]anilino]thiazolo[5,4-d]pyrimidine-2-carboxamide]: the IC50 is 631 nM in assay [6], 794 nM in assay [7] and 251 nM in assay [8].
The matching figures for `CC(C)Oc1cc(F)ccc1Nc1ncnc2sc(C(=O)NCCN(C)C)nc12` [Example 39, N-[2-(dimethylamino)ethyl]-7-{[4-fluoro-2-(propan-2-yloxy)phenyl]amino}[1,3]thiazolo[5,4-d]pyrimidine-2-carboxamide]: 126 nM, 158 nM and 63.1 nM.
The like results for `CC(C)Oc1cc(F)ccc1Nc1ncnc2sc(C(=O)NC3CC4CCC(C3)N4)nc12` (stereo not drawn) [Example 5, N-(8-azabicyclo[3.2.1]octan-3-yl)-7-(4-fluoro-2-isopropoxy-anilino)thiazolo[5,4-d]pyrimidine-2-carboxamide] were, in that order, 79.4 nM, 158 nM and 100 nM.
Consider `O=C(NC1CCOCC1)c1nc2c(N3CC(CCN4CCCC4)c4ccccc43)ncnc2s1` (stereo not drawn) [Example 153, 7-[3-(2-pyrrolidin-1-ylethyl)indolin-1-yl]-N-tetrahydropyran-4-yl-thiazolo[5,4-d]pyrimidine-2-carboxamide], for which the IC50 was 50.1 nM in assay [6], 50.1 nM in assay [7] and 100 nM in assay [8].
As for `CC(C)Oc1cc(F)ccc1Nc1ncnc2sc(C(=O)N3CCC(CN(C)C)CC3)nc12` [Example 35, {4-[(dimethylamino)methyl]piperidin-1-yl}(7-{[4-fluoro-2-(propan-2-yloxy)phenyl]amino}[1,3]thiazolo[5,4-d]pyrimidin-2-yl)methanone], the IC50 in assay [6] was 200 nM; in assay [7] it was 158 nM; in assay [8], 316 nM.
The like results for `O=C(NC1CCOCC1)c1nc2c(N3CCc4cc(F)ccc43)ncnc2s1` [Example 66, 7-(5-fluoroindolin-1-yl)-N-tetrahydropyran-4-yl-thiazolo[5,4-d]pyrimidine-2-carboxamide] were, in that order, 3.98 nM, 5.01 nM and 10 nM.
Take `Fc1ccc2c(c1)CCN2c1ncnc2sc(N3CCOCC3)nc12` [Example 87, 4-[7-(5-fluoroindolin-1-yl)thiazolo[5,4-d]pyrimidin-2-yl]morpholine]: the IC50 was 79.4 nM in assay [6], 126 nM in assay [7] and 200 nM in assay [8].
Regarding `CNC(=O)c1nc2c(N3CCc4cc(F)ccc43)ncnc2s1` [Example 69, 7-(5-fluoroindolin-1-yl)-N-methyl-thiazolo[5,4-d]pyrimidine-2-carboxamide], the IC50 in assay [6] is 5.01 nM; in assay [7] it was 6.31 nM; in assay [8], 6.31 nM.
Consider `CNCCNC(=O)c1nc2c(Nc3ccc(F)cc3OC(C)C)ncnc2s1` [Example 30, 7-{[4-Fluoro-2-(propan-2-yloxy)phenyl]amino}-N-[2-(methylamino)ethyl][1,3]thiazolo[5,4-d]pyrimidine-2-carboxamide], for which the IC50 in assay [6] is 126 nM; in assay [7], 200 nM; in assay [8], 100 nM.
